Measured values published in patent publication US12435060B2, “Acylamino bridged heterocyclic compound, and composition and application thereof” (BEIJING SCITECH-MQ PHARMACEUTICALS LIMITED, priority 2019, dated 2025).

System: HT29 cells
Assay: Inhibition of cell necrosis (CCK8 method), induced programmed necrosis of HT29 cells
Type: cell-based
Conditions: Homo sapiens, HT-29; rescue from necrosis induced by TNF-α 20 ng/mL, AT-406 1 μM, Z-VAD-FMK 20 μM; 16-20 hours; CCK-8, OD 450 nm
Protocol: Assay Example 2. Assay Method for Compounds Inhibiting Cell Necrosis (CCK8 Method)
In this assay example 2, under the condition of inducing programmed cell necrosis, different concentrations of the test compounds were added to test the IC50 of the rescue effect of the test compounds on the programmed necrosis.
• Compounds: Dissolved in DMSO to make a 10 mM solution; • TNF-α: The initial concentration was 100 μg/mL; • Z-VAD-FMK: Dissolved in DMSO to make a 10 mM solution; • AT-406: Dissolved in DMSO to make a 10 mM solution. I. Experimental Steps • 1) Compound dilution: All test compounds were dissolved in DMSO to prepare a 10 mM stock solution, and the first concentration gradient dilution of the test compounds was completed in DMSO. The gradient dilution factor was 4 times and 9 concentration gradients were made; A 40-fold overall dilution of all compounds was completed in the cell culture medium, and the resulting compound was 10× compound, which will be added to the wells of the 96-well plate containing cells, so that the final cell culture medium was 1× the designed final concentration. The general drug design is 9 concentration gradients, of which the highest final concentration is 25000 nM, the lowest concentration after 4-fold dilution of 9 concentrations is 0.38 nM, and the final concentration of DMSO in all wells is 0.25%. The compound dilution process is shown in FIG. 3. • 2) HT 29 cells in good growth condition were selected, trypsinized, the cells was collected by centrifugation, resuspended in McCOY's 5A complete medium (containing 10% FBS) and counted, and the number of cells and survival rate were recorded. • 3) Cells were inoculated to the 60 wells in the middle of the 96-well culture plate at a density of 12000 cells/80 μL/well, surrounding wells were filled with sterile water, and incubated overnight. • 4) 10 μL of the 10× compound diluted with the medium was added to the assay wells, 10 μL of McCOY's 5A complete medium containing 2.5% DMSO was added to the inducer-free wells and the control wells, mixed and shaked, and incubated for 30 minutes. • 5) Then 10 μL of inducer mixture (TNF-α, AT-406, Z-VAD-FMK with the final concentration of 20 ng/mL, 1 μM, 20 μM) was added into the assay wells and control wells. 10 μL McCOY's 5A complete medium was added to wells without inducer. Cells were cultured in an incubator with 5% CO2, at 37° C. • 6) After culturing for 16-20 hours, 10 μL of CCK-8 reagent was added to each well, and incubated for about 2 hours; • 7) The OD value was read at 450 nm on the multi-function plate reader. • 8) Data processing: Inhibition rate of necrosis (%)=100*(X−B)/(A−B) • A: The OD values of the wells without inducer (containing cells, CCK-8, without compound and inducer); • […]: OD values of assay wells (containing cells, CCK-8, compound, inducer); • B: OD values of control wells (containing cells, CCK-8, inducer, without compound). Then the value were imported into Graphpad Prism5 software for curve fitting and the IC50 values were calculated.

`Cc1ccc(C#N)cc1-c1ccnc(NC(=O)c2nnc(Cc3ccccc3)[nH]2)c1` [Example 35, 5-benzyl-N-(4-(5-cyano-2-methylphenyl)pyridin-2-yl)-4H-1,2,4-triazole-3-carboxamide] was tested, and the IC50 was at most 0.1 µM.
Compound `Cc1ccc(C(F)(F)F)cc1-c1ccnc(NC(=O)c2nnc(Cc3ccccc3)[nH]2)c1` [Example 36, 5-benzyl-N-(4-(2-methyl-5-(trifluoromethyl)phenyl)pyridin-2-yl)-4H-1,2,4-triazole-3-carboxamide] has an IC50 of 0.1 to 1 µM.
For `Cc1ccc(S(C)(=O)=O)cc1-c1ccnc(NC(=O)c2nnc(Cc3ccccc3)[nH]2)c1` [Example 37, 5-benzyl-N-(4-(2-methyl-5-(methylsulfonyl)phenyl)pyridin-2-yl)-4H-1,2,4-triazole-3-carboxamide], the IC50 was 0.1 to 1 µM.
In the case of `O=C(Nc1cc(-c2cccc3c2OCC3)ccn1)c1nnc(Cc2ccccc2)[nH]1` [Example 38, 5-benzyl-N-(4-(2,3-dihydrobenzofuran-7-yl)pyridin-2-yl)-4H-1,2,4-triazole-3-carboxamide], the IC50 is reported as 1 to 10 µM.
Work on `O=C(Nc1cc(-c2cccc3c2CCC3)ccn1)c1nnc(Cc2ccccc2)[nH]1` [Example 39, 5-benzyl-N-(4-(2,3-dihydro-1H-inden-4-yl)pyridin-2-yl)-4H-1,2,4-triazole-3-carboxamide] yielded an IC50 of 1 to 10 µM.
In the case of `O=C(Nc1cc(-c2cccc3c2CCCO3)ccn1)c1nnc(Cc2ccccc2)[nH]1` [Example 40, 5-benzyl-N-(4-(chroman-5-yl)pyridin-2-yl)-4H-1,2,4-triazole-3-carboxamide], the IC50 is reported as 1 to 10 µM.
Work on `O=C(Nc1cc(-c2cccc3c2OCO3)ccn1)c1nnc(Cc2ccccc2)[nH]1` [Example 41, N-(4-(benzo[d][1,3]dioxol-4-yl)pyridin-2-yl)-5-benzyl-4H-1,2,4-triazole-3-carboxamide] yielded an IC50 of over 10 µM.
For `O=C(Nc1cc(-c2cccc3c2OCCO3)ccn1)c1nnc(Cc2ccccc2)[nH]1` [Example 42, 5-benzyl-N-(4-(2,3-dihydrobenzo[b][1,4]dioxin-5-yl)pyridin-2-yl)-4H-1,2,4-triazole-3-carboxamide], the IC50 was 1 to 10 µM.
In the case of `O=C(Nc1cc(-c2cccc3c2CCCC3)ccn1)c1nnc(Cc2ccccc2)[nH]1` [Example 43, 5-benzyl-N-(4-(5,6,7,8-tetrahydronaphthalen-1-yl)pyridin-2-yl)-4H-1,2,4-triazole-3-carboxamide], the IC50 is reported as 1 to 10 µM.
`Cc1ccc(C2CC2)cc1-c1ccnc(NC(=O)c2nnc(Cc3ccccc3)[nH]2)c1` [Example 45, 5-benzyl-N-(4-(5-cyclopropyl-2-methylphenyl)pyridin-2-yl)-4H-1,2,4-triazole-3-carboxamide] was tested, and the IC50 was 0.1 to 1 µM.
`COc1ccc(C2CC2)cc1-c1ccnc(NC(=O)c2nnc(Cc3ccccc3)[nH]2)c1` [Example 46, 5-benzyl-N-(4-(5-cyclopropyl-2-methoxyphenyl)pyridin-2-yl)-4H-1,2,4-triazole-3-carboxamide] was tested, and the IC50 was 1 to 10 µM.
With `O=C(Nc1cc(C2CCCC2)ccn1)c1nnc(Cc2ccccc2)[nH]1` [Example 47, 5-benzyl-N-(4-cyclopentylpyridin-2-yl)-4H-1,2,4-triazole-3-carboxamide] the IC50 was over 10 µM.
Work on `O=C(Nc1cc(C2CCCCC2)ccn1)c1nnc(Cc2ccccc2)[nH]1` [Example 48, 5-benzyl-N-(4-cyclohexylpyridin-2-yl)-4H-1,2,4-triazole-3-carboxamide] yielded an IC50 of over 10 µM.
In the case of `O=C(Nc1cc(C2CCOCC2)ccn1)c1nnc(Cc2ccccc2)[nH]1` [Example 49, 5-benzyl-N-(4-(tetrahydro-2H-pyran-4-yl)pyridin-2-yl)-4H-1,2,4-triazole-3-carboxamide], the IC50 is reported as 1 to 10 µM.
Compound `COc1ncc(C)cc1-c1ccnc(NC(=O)c2nnc(Cc3ccccc3)[nH]2)c1` [Example 50, 5-benzyl-N-(2-methoxy-5-methyl-[3,4′-bipyridin]-2′-yl)-4H-1,2,4-triazole-3-carboxamide] has an IC50 of 1 to 10 µM.
For `CCOc1ncc(C)cc1-c1ccnc(NC(=O)c2nnc(Cc3ccccc3)[nH]2)c1` [Example 51, 5-benzyl-N-(2-ethoxy-5-methyl-[3,4′-bipyridin]-2′-yl)-4H-1,2,4-triazole-3-carboxamide], the IC50 was 1 to 10 µM.
`Cc1cnc(OC(C)C)c(-c2ccnc(NC(=O)c3nnc(Cc4ccccc4)[nH]3)c2)c1` [Example 52, 5-benzyl-N-(2-isopropoxy-5-methyl-[3,4′-bipyridin]-2′-yl)-4H-1,2,4-triazole-3-carboxamide] showed an IC50 of over 10 µM.
With `CCOc1nc(-c2ccnc(NC(=O)c3nnc(Cc4ccccc4)[nH]3)c2)ccc1C` [Example 53, 5-benzyl-N-(6-ethoxy-5-methyl-[2,4′-bipyridin]-2′-yl)-4H-1,2,4-triazole-3-carboxamide] the IC50 was over 10 µM.
With `COCCOc1nc(-c2ccnc(NC(=O)c3nnc(Cc4ccccc4)[nH]3)c2)ccc1C` [Example 54, 5-benzyl-N-(6-(2-methoxyethoxy)-5-methyl-[2,4′-bipyridin]-2′-yl)-4H-1,2,4-triazole-3-carboxamide] the IC50 was over 10 µM.
`COCCN(C)c1ccc(C)c(-c2ccnc(NC(=O)c3nnc(Cc4ccccc4)[nH]3)c2)c1` [Example 55, 5-benzyl-N-(4-(5-((2-methoxyethyl)(methyl)amino)-2-methylphenyl)pyridin-2-yl)-4H-1,2,4-triazole-3-carboxamide] gave an IC50 of 0.1 to 1 µM.
Work on `CCOCCN(C)c1ccc(C)c(-c2ccnc(NC(=O)c3nnc(Cc4ccccc4)[nH]3)c2)c1` [Example 56, 5-benzyl-N-(4-(5-((2-ethoxyethyl)(methyl)amino)-2-methylphenyl)pyridin-2-yl)-4H-1,2,4-triazole-3-carboxamide] yielded an IC50 of 0.1 to 1 µM.
Work on `Cc1ccc(N(C)CCCO)cc1-c1ccnc(NC(=O)c2nnc(Cc3ccccc3)[nH]2)c1` [Example 57, 5-benzyl-N-(4-(5-((3-hydroxypropyl)(methyl)amino)-2-methylphenyl)pyridin-2-yl)-4H-1,2,4-triazole-3-carboxamide] yielded an IC50 of 0.1 to 1 µM.
`COCCCN(C)c1ccc(C)c(-c2ccnc(NC(=O)c3nnc(Cc4ccccc4)[nH]3)c2)c1` [Example 58, 5-benzyl-N-(4-(5-((3-methoxypropyl)(methyl)amino)-2-methylphenyl)pyridin-2-yl)-4H-1,2,4-triazole-3-carboxamide] was tested, and the IC50 was 0.1 to 1 µM.
`COCCCSc1ccc(C)c(-c2ccnc(NC(=O)c3nnc(Cc4ccccc4)[nH]3)c2)c1` [Example 59, 5-benzyl-N-(4-(5-(3-methoxypropylthio)-2-methylphenyl)pyridin-2-yl)-4H-1,2,4-triazole-3-carboxamide] was tested, and the IC50 was at most 0.1 µM.
`COc1ccc(C)nc1-c1ccnc(NC(=O)c2nnc(Cc3ccccc3)[nH]2)c1` [Example 60, 5-benzyl-N-(3-methoxy-6-methyl-[2,4′-bipyridin]-2′-yl)-4H-1,2,4-triazole-3-carboxamide] was tested, and the IC50 was over 10 µM.
In the case of `COc1cnc(C)cc1-c1ccnc(NC(=O)c2nnc(Cc3ccccc3)[nH]2)c1` [Example 61, 5-benzyl-N-(5′-methoxy-2′-methyl-[4,4′-bipyridin]-2-yl)-4H-1,2,4-triazole-3-carboxamide], the IC50 is reported as 1 to 10 µM.
`CCOc1ccc(C)nc1-c1ccnc(NC(=O)c2nnc(Cc3ccccc3)[nH]2)c1` [Example 62, 5-benzyl-N-(3-ethoxy-6-methyl-[2,4′-bipyridin]-2′-yl)-4H-1,2,4-triazole-3-carboxamide] showed an IC50 of over 10 µM.
Work on `CCc1cc(-c2ccnc(NC(=O)c3nnc(Cc4ccccc4)[nH]3)c2)c(OC)cn1` [Example 63, 5-benzyl-N-(2′-ethyl-5′-methoxy-[4,4′-bipyridin]-2-yl)-4H-1,2,4-triazole-3-carboxamide] yielded an IC50 of 1 to 10 µM.
`Cc1ccc(OCCOC(C)(C)C)cc1-c1ccnc(NC(=O)c2nnc(Cc3ccccc3)[nH]2)c1` [Example 64, 5-benzyl-N-(4-(5-(2-(tert-butoxy)ethoxy)-2-methylphenyl)pyridin-2-yl)-4H-1,2,4-triazole-3-carboxamide] showed an IC50 of at most 0.1 µM.
Work on `Cc1ccc(OC2CCOCC2)cc1-c1ccnc(NC(=O)c2nnc(Cc3ccccc3)[nH]2)c1` [Example 65, 5-benzyl-N-(4-(2-methyl-5-((tetrahydro-2H-pyran-4-yl)oxy)phenyl)pyridin-2-yl)-4H-1,2,4-triazole-3-carboxamide] yielded an IC50 of at most 0.1 µM.
